Experimental data from patent US4576961A, “Antibiotic heterocyclic oxygen compounds and use” (priority 1980, dated 1986).

What was measured:
microorganisms = test: anti-microbial effect; assay type: cell-based
[1] = stability of PR-1381 in solution; assay type: physicochemical
Experimental: Characteristic signals seen in an ^1 H-NMR-spectrum recorded immediately after dissolution of PR-1381 in deuterochloroform are listed in table E.
When the solution in deuterochloroform is allowed to stand at room temperature, these initial signals gradually disappear while methanol is liberated from the molecule, and finally after 10 hours, a spectrum is observed which is identical with that obtained from PR-1350 complex in deuterochloroform, except for an extra signal at δ=3.48, probably due to methanol liberated during the transformation of PR-1381 to the PR-1350 complex.

Q: With COC1(O)C(O)OC(CC2(C)C(C)CCC3(C)C(C=O)=CCCC32)C12CO2 (stereo not shown) [PR-1381] as the compound, how does the antibiotic activity (microorganisms) read?
A: antibiotically active

Q: What about the “anti-microbial effect compared with PR-1350 complex” value (microorganisms; qualitatively and quantitatively) of the same compound?
A: identical with that of the PR-1350 complex

Q: What about the “time after which spectrum is identical with that of PR-1350 complex” value ([1]; deuterochloroform, room temperature) of the same compound?
A: 10 h

Q: And the decomposition in solution ([1]; in solution)?
A: decomposes to the PR-1350 complex with liberation of methanol
